Laboratory results from US9943534B2, “Composition for preventing or treating liver cancer containing ginsenoside F2” (INTELLIGENT SYNTHETIC BIOLOGY CENTER, priority 2016, dated 2018).

How the values were obtained:
[1] = tested on: mouse liver cancer cell line (Hepa1-6); experiment: Genomic DNA fragmentation by gel electrophoresis; format: cell-based; settings: Hepa1-6, 24 hours, FIG. 3
Description: The cell-killing effect of ginsenoside F2 on the mouse liver cancer cell line (Hepa1-6) was confirmed by confirming the degree of DNA degradation.
Specifically, the ginsenoside F2 prepared in Example 1 was treated to the mouse liver cancer cell line (Hepa1-6) at various concentrations ([…]). After 24 hours, the cells were harvested, and the genomic DNA was extracted using a genomic DNA extraction kit (iNtRON, USA) according to the experimental method provided by the manufacturer, and subsequently, a gel electrophoresis was carried out.

mouse normal hepatocytes = experiment: Cell survival rate (EZ-CYTOX), normal hepatocytes; format: cell-based; settings: 10 to 60 μM, 24 hours, FIG. 1c
Description: (§1) The ginsenoside F2 prepared in Example 1 was treated to Hep3B cells, a human liver cancer cell line, Hepa1-6 cells, a mouse liver cancer cell line, and mouse normal hepatocytes at various concentrations (10 to 60 μM). After 24 hours, the survival rate of the cells was measured using EZ-CYTOX (Daeil Lab Service, Korea), which is used to measure the cell survival rate, according to the experimental method provided by the manufacturer.

Hepa1-6 cells = experiment: Cell survival rate (EZ-CYTOX), mouse liver cancer cell line; format: cell-based; settings: 10 to 60 μM, 24 hours, FIG. 1b
Description: as §1

Hep3B cells = experiment: Cell survival rate (EZ-CYTOX), human liver cancer cell line; format: cell-based; settings: 10 to 60 μM, 24 hours, FIG. 1a
Description: as §1

[2] = tested on: liver cancer-induced mice; experiment: Diethylnitrosamine (DEN)-induced liver cancer formation in mice: size, number, weight of cancer tissues; format: in vivo, mouse; settings: 50 mg/kg three times a week for 20 weeks, vs vehicle-treated group
Description: (§2) Diethylnitrosamine (DEN), a hepatocarcinogen, was injected intraperitoneally into 14-day-old male mice at a concentration of 20 mg/kg to induce the formation of liver cancer. A vehicle (olive oil) or ginsenoside F2 (50 mg/kg) was treated three times a week from 20 weeks of age, and then 20 weeks later, the mice were sacrificed to confirm the inhibition of liver cancer formation.
The mice sacrificed in Example 3-1 above were cut open ventrally to remove the liver. Then, the size, number, and weight of the cancer tissues of the vehicle-treated group and the ginsenoside F2-treated group were compared.

[3] = tested on: liver cancer-induced mice; experiment: Liver histology (H&E) and flow cytometry of liver immune cells in liver cancer-induced mice; format: in vivo, mouse; settings: vs vehicle-treated group
Description: as §2
The mice sacrificed in Example 3-1 above were cut open ventrally to remove the liver, and then H&E ([…] and eosin) staining was performed to observe the histological changes of the liver.
In order to specifically measure the activity of the immune cells, the immune cells were isolated from the removed liver, and the stained cells were analyzed via a flow cytometer (LSRII, BD bioscience) using the markers shown in Table 1.

[4] = tested on: human liver cancer cell line (Hep3B); experiment: Cell death by phase contrast microscopy and DAPI/TUNEL staining; format: cell-based; settings: 10 to 60 μM, 24 hours
Description: The cell-killing effect of ginsenoside F2 on the human liver cell line (Hep3B) was confirmed using a phase contrast microscope and a fluorescence microscope.
Specifically, the ginsenoside F2 prepared in Example 1 was treated to the human liver cancer cell line (Hep3B) at various concentrations (10 to 60 μM), and after 24 hours, the state of the cells was observed under the phase contrast microscope. Further, the cells were stained using DAPI (4′,6-diamidino-2-phenylindole, Vector laboratory, USA) and TUNEL (terminal deoxyribonucleotidyl transferase mediated dUTP nick end labeling, Roche life science, USA). The staining was carried out according to the method provided by the manufacturer, and the degree of staining was observed under the fluorescence microscope.

[5] = tested on: liver cancer-induced mice; experiment: Serum ALT and AST in liver cancer-induced mice (VetTEST); format: in vivo, mouse; settings: 50 mg/kg three times a week for 20 weeks, vs vehicle-treated group
Description: as §2
Blood was collected from the abdominal aorta of the mice sacrificed in Example 3-1 above and centrifuged at 3,300 rpm for 10 minutes using a centrifuge, and then the serum was isolated only. Subsequently, the alanine aminotransferase (ALT), aspartate aminotransferase (AST) and triglyceride were measured by a VetTEST® (IDEXX, USA) according to the experimental method provided by the manufacturer using a kit provided by IDEXX Laboratories (USA).

[6] = 50 mg/kg three times a week for 20 weeks, FIG. 6a

Compound: CC(C)=CCC[C@](C)(O[C@@H]1O[C@H](CO)[C@@H](O)[C@H](O)[C@H]1O)[C@H]1CC[C@]2(C)[C@@H]1[C@H](O)C[C@@H]1[C@@]3(C)CC[C@H](O[C@@H]4O[C@H](CO)[C@@H](O)[C@H](O)[C@H]4O)C(C)(C)[C@@H]3CC[C@]12C [ginsenoside F2]
- fragmented genomic DNA [1]: increased with increasing concentration of ginsenoside F2
- survival rate of mouse normal hepatocytes (mouse normal hepatocytes): almost no change was observed
- survival rate of mouse liver cancer cell line (Hepa1-6) (Hepa1-6 cells): decreased depending on the concentration of ginsenoside F2
- survival rate of human liver cancer cell line (Hep3B) (Hep3B cells): decreased depending on the concentration of ginsenoside F2
- body weight [2]: no difference
- number of cancer tissues [2]: reduced more than twice
- size of cancer tissues [2]: significantly reduced
- weight of liver tissues [2]: reduced
- formation of liver cancer (H&E histology) [3, 6]: inhibited
- infiltration of immune cells near the liver cancer tissues (H&E) [3, 6]: increased
- number of CD8 T cells in liver ([3]; flow cytometry, FIG. 6b): increase
- number of macrophages in liver ([3]; flow cytometry, FIG. 6b): increase
- number of natural killer T cells in liver ([3]; flow cytometry, FIG. 6b): increase
- cell death under phase contrast microscope ([4]; FIG. 2a): cell death of human liver cancer cell line (Hep3B) was induced
- number of cells stained to DAPI ([4]; fluorescence microscope): no difference
- number of cells stained to TUNEL ([4]; fluorescence microscope, FIGS. 2a and 2b): increased depending on the concentration of ginsenoside F2
- serum ALT value ([5]; FIG. 5a): reduced
- serum AST value ([5]; FIG. 5b): reduced
